This is an account of results in patent US10837957B2, “In vitro model for pathological or physiologic conditions” (HemoShear, LLC, priority 2012, dated 2020).

Series [1] deals with hepatocytes. Description: In vitro fatty liver model: lipid accumulation (Nile red, Oil Red O, total triglycerides). The following applies: 1.5 μM pioglitazone, high insulin/glucose media. In kind it is cell-based, rat. As for the experimental part: Samples were then blocked in 5% goat serum, 0.2% blotting grade non-fat dry milk blocker, and 1% BSA in PBS for 45 minutes. The samples were then washed thrice in 0.1% BSA in PBS and incubated with 1:5000 dilution of Nile red (1 mM stock), 1:1000 DRAQS (a fluorescent DNA dye; Cell Signalling), 1:500 ALEXA FLUOR 488 conjugated phalloidin (Life Technologies), and 1% BSA in PBS for thirty minutes and protected from light. The samples were washed in 0.1% BSA in PBS thrice for five minutes each and mounted on glass cover slips using PROLONG GOLD antifade mounting media (an antifade reagent; Invitrogen). The samples were imaged on a Nikon C1+ Confocal System microscope. Oil Red O Assay: Accumulation of intracellular lipids within hepatocytes was assessed by adapting and modifying a commercially available Steatosis Colorimetric Assay Kit (Cayman Chemical). At the end of the culture period, 2 cm^2 sized porous membrane segments containing the hepatocytes from devices under healthy and steatotic conditions were washed with PBS and fixed in 4% paraformaldehyde for 30 minutes. […] The solution was then transferred to clear 96-well plates and absorbance was read at 490-520 nm in a spectrophotometer. Measurement of Total Triglycerides: Triglyceride content was assessed using a commercially available colorimetric assay kit (Cayman Triglyceride Colorimetric Assay Kit, Cat #10010303). […]

The test system of series [2] is hepatocytes. Description: In vitro fatty liver model: RT-PCR of metabolic and lipid pathway genes. In kind it is cell-based, rat. The following applies: 1.5 μM pioglitazone, high insulin/glucose disease conditions.

For `CCc1ccc(CCOc2ccc(CC3SC(=O)NC3=O)cc2)nc1` (centres unmarked) [Pioglitazone, pioglitazone], the “total triglyceride content of hepatocytes” value with hepatocytes [1] is recorded as “reduced”. Further, the “expression of metabolic genes such as Cyp3A2” value in the series with hepatocytes [2] is “restored”.
